This test has as its target Dihydroorotate dehydrogenase (quinone), mitochondrial (Homo sapiens, UniProt Q02127). Description: Inhibition of DHODH (unknown origin) using L-dihydroorotic acid as substrate preincubated for 30 mins followed by substrate addition measured every 10 mins in presence of decylubiquinone by DCIP dye based coupled enzyme assay.
Chain of Dihydroorotate dehydrogenase (quinone), mitochondrial (Q02127 whole entry): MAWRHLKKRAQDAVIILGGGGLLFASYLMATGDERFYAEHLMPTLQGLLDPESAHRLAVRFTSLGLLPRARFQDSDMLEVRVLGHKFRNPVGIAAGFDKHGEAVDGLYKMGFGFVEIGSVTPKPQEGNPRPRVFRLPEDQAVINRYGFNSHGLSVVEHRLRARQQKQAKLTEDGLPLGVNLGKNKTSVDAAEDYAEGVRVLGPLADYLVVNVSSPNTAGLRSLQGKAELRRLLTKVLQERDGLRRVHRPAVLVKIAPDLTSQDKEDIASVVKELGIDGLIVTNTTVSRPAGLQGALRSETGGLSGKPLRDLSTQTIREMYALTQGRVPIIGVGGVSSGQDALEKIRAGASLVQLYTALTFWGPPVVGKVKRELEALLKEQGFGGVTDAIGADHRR
By IC50 is commonly meant the concentration that gives 50% inhibition. For the molecule `Cc1cccc(-c2ccc(-c3cc(C(=O)O)c4nc(C)[nH]c4c3)cc2)c1`, the IC50 was determined as 1 nM.
The result for `Cc1nc2c(C(=O)O)cc(-c3ccc(-c4ccccc4)cc3)cc2[nH]1` reads 10 nM.
The result for `Cc1nc2c(C(=O)O)cc(-c3ccc(-c4ccc(O)cc4)cc3)cc2[nH]1` reads 10 nM; that for `Cc1nc2c(C(=O)O)cc(-c3ccc(-c4ccccc4CN4CCCC4)cc3)cc2[nH]1`, 1 nM; that for `Cc1nc2c(C(=O)O)cc(-c3c(F)c(F)c(-c4ccccc4)c(F)c3F)cc2[nH]1`, 1 nM.
The result for `Cc1nc2c(C(=O)O)cc(-c3c(F)c(F)c(-c4ccc(CN5CCCC(F)(F)C5)cc4)c(F)c3F)cc2[nH]1` reads 1 nM; that for `Cc1nc2c(C(=O)O)cc(-c3ccc(-n4c(C)ccc4C)cc3)cc2[nH]1`, 1 nM.
On to `Cc1nc2c(C(=O)O)cc(-c3c(F)c(F)c(-c4ccc(CN5CCOCC5)cc4)c(F)c3F)cc2[nH]1`, for which the 50% inhibitory concentration (IC50) amounted to 10 nM.

(Values after ChEMBL document CHEMBL4725455, “Use of Dihydroorotate Dehydrogenase Inhibitors for Treatment of Autoimmune Diseases and Cancer” (ACS Med Chem Lett, 2020).)
